# Measured values as given in ChEMBL document CHEMBL4400517, “Marine natural products as potential anti-tubercular agents” (Eur J Med Chem, 2019).
# Tests used:
# [1] = test system: Mycolicibacterium smegmatis; test: Antibiofilm activity against Mycobacterium smegmatis after 5 weeks; assay type: functional
# [2] = test system: Mycobacterium tuberculosis; test: Antimycobacterial activity against Mycobacterium tuberculosis; assay type: functional
# [3] = test system: Mycobacterium tuberculosis; test: Antimycobacterial activity against Mycobacterium tuberculosis H37Rv; assay type: functional, organism-based
# [4] = target: T1, Phosphotyrosine protein phosphatase (Mycobacterium tuberculosis) (UniProt A0A045ISB3); test: Inhibition of Mycobacterium tuberculosis Protein Tyrosine Phosphatase B at 100 uM relative to control
# T1 sequence (whole entry): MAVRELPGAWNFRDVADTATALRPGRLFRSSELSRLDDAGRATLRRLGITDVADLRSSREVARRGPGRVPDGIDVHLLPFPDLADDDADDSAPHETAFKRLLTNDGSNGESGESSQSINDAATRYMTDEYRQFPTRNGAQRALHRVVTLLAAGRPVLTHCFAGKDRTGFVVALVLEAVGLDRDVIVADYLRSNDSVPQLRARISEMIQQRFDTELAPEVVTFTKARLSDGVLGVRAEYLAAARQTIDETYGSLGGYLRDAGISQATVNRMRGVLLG
# [5] = test system: Mycobacterium tuberculosis; test: Antimycobacterial activity against Mycobacterium tuberculosis H37Rv assessed as inhibition of mycobacterial growth at 12.5 ug/ml relative to control; assay type: functional
# [6] = test system: Mycobacterium tuberculosis; test: Antimycobacterial activity against Mycobacterium tuberculosis H37Ra; assay type: functional
# Mycolicibacterium vaccae = test: Antimycobacterial activity against Mycobacterium vaccae assessed as diameter of inhibition zone at 50 ug/disc; assay type: functional; settings: read-out: IZ
# Mycolicibacterium phlei = test: Antimycobacterial activity against Mycobacterium phlei assessed as diameter of inhibition zone at 20 ug/disc; assay type: functional; settings: read-out: IZ
structure (smiles),measurement,setting,value
CC(C)=C/C=C\[C@H](C)[C@H]1CC[C@]2(C)C[C@H]3[C@@H](C(=O)C[C@@]3(C)O)/C(C=O)=C\C[C@@H]12,MIC,[1],65 µM
COC(=O)c1c(C)cc2c(c1O)[C@@]1(O)C(=O)c3cc4c(c(O)c3C(=O)[C@@]1(OC)CC2)C(=O)C=C(N[C@H]1O[C@@H](C)[C@H](O)[C@@H](O)[C@H]1OC)C4=O,MIC,[2],1.5 µM
CO[C@H]1/C=C/O[C@@]2(C)Oc3c(C)c(O)c4c(O)c(c(/C=N/N5CCN(C)CC5)c(O)c4c3C2=O)NC(=O)/C(C)=C\C=C\[C@H](C)[C@H](O)[C@@H](C)[C@@H](O)[C@@H](C)[C@H](OC(C)=O)[C@@H]1C [RIFAMPIN],IC50,[3],0.55 µM
CSC1=CC2=C(C(=O)c3ccc([C@H]4C[C@@H](O)[C@H](O)[C@@H](C)O4)c(O)c3C2=O)[C@@]2(O)C(=O)C=C(C)C[C@@]12O,MIC,[2],24.3 µM
COC1=CC(=O)c2c(cc3c(c2O)C[C@@H](O)[C@@](C)(O)C3)C1=O,inhibition,[4],17.5 to 48.8%
O=C1CCCN2[C@@H](CC1)C[C@]13CN4CCCC/C=C\CC[C@](O)(C=C(c5nccc6c5[nH]c5c(O)cccc56)[C@@H]1CC4)[C@H]23,MIC,[3],0.69 µM
COC1=CC(=O)c2c(O)c3c(c(O)c2C1=O)C[C@]1(C)OC(C)(C)O[C@@H]1[C@H]3O,inhibition,[4],17.5 to 48.8%
COC1=CC(=O)c2c(O)c3c(c(O)c2C1=O)C[C@]1(C)OC(C=C(C)C)O[C@@H]1[C@H]3O (stereo partly specified),inhibition,[4],17.5 to 48.8%
O[C@]12C=C(c3nccc4c3[nH]c3ccccc34)[C@@H]3CCN(CCCC/C=C\CC1)C[C@@]31C[C@@H]3/C=C\CCCCN3[C@H]12 [MANZAMINE A],MIC,[3],1.64 µM
CSC1=CC2=C(C(=O)c3ccc([C@H]4C[C@@H](O)[C@H](O[C@H]5CC[C@H](O[C@H]6C[C@@H](O)[C@H](O)[C@@H](C)O6)[C@H](C)O5)[C@@H](C)O4)c(O)c3C2=O)[C@@]2(O[C@H]3CC[C@H](O)[C@H](C)O3)C(=O)C[C@](C)(O)C[C@@]12O,MIC,[2],14 µM
CC1(C)CCC[C@]2(C)[C@H]3[C@H](C#N)c4cc(O)c(O)cc4O[C@@]3(C)CC[C@@H]12,inhibition at 12.5 µg/mL,[5],96%
CC(=O)O[C@H]1C[C@@]2(C)[C@@H](CC[C@H]3[C@@]4(C)C=CC(=O)[C@@H](C)C4[C@H](OC(C)=O)C(=O)[C@@]32C)/C1=C(\CCC=C(C)C)C(=O)O (stereo partly specified),MIC,[3],0.89 µM
C1=C\CCCCN2C[C@H]3CCCC/C=C\CCCCN4CC[C@@H]([C@H](CCCCCC/1)C4)[C@H](C3)C2 (relative stereo),MIC,[6],5.34 µM
CSC1=CC2=C(C(=O)c3ccc([C@H]4C[C@@H](O)[C@H](O)[C@@H](C)O4)c(O)c3C2=O)[C@@]2(O)C(=O)C[C@](C)(O)C[C@@]12O,MIC,[2],5.88 µM
CC[C@H]1/C=C/[C@H](O)[C@H](C=C(C)C)OC(=O)/C(C)=C/CC(=O)Nc2cc(O)cc3c2O/C(=C\C(=O)CC1)C(C)=C3,zone of inhibition at 50 µg/disc,Mycolicibacterium vaccae,12 mm
C=C(CC[C@@H](C)[C@H]1CC[C@H]2[C@@H]3C(C=O)=C4C[C@@H](O)CC[C@]4(C)[C@H]3CC[C@]12C)C(C)C [PARGUESTEROL A],MIC,[3],18.9 µM
CNC1=CC(=O)c2c(O)c3c(c(O)c2C1=O)C[C@](C)(O)[C@H](O)[C@H]3O,inhibition,[4],17.5 to 48.8%
CC[C@H]1/C=C/[C@@H]([C@@H](O)C=C(C)C)OC(=O)/C(C)=C\CC(=O)Nc2cc(O)cc3c2O[C@@]2(CC1)CC(=O)[C@@H](C)[C@@H]3O2,zone of inhibition at 50 µg/disc,Mycolicibacterium vaccae,19 mm
COC1=C(Br)C(O)[C@@]2(C=C1Br)CC(C(=O)NCCCCNC(=O)C1=NO[C@]3(C=C(Br)C(OC)=C(Br)C3O)C1)=NO2 (stereo partly specified),MIC,[2],7.99 µM
Cc1cc(O)c2c3c(ccc2c1)C(=O)c1c(ccc([C@H]2C[C@@H](O)[C@H](O)[C@@H](C)O2)c1O)C3=O,MIC,[2],14.4 µM
COC(=O)N[C@H]1[C@@H](C)O[C@@H](O[C@H]2C/C=C(\C)[C@@H]3C=C[C@@H]4[C@@H](O[C@@H]5C[C@@H](O[C@@H]6C[C@@H](O)[C@@H](O[C@H]7C[C@@H](C)[C@H](OC)[C@H](O)C7)[C@H](C)O6)[C@@H](O)[C@H](C)O5)[C@@H](C)C[C@H](C)[C@H]4[C@]3(C)C(=O)C3=C(O)[C@@]4(C[C@@H](C)C(CO)=C[C@H]4/C=C/2C)OC3=O)C[C@]1(C)[N+](=O)[O-],MIC,[3],13.5 µM
Cc1cc(O)c2c3c(c(O)c4c(c13)O[C@@H](C)[C@]4(C)CO)C(=O)OC2=O,zone of inhibition at 20 µg/disc,Mycolicibacterium phlei,20 mm
COC(=O)/C1=C/c2c([nH]c3ccccc23)/C(C(=O)OC)=C\c2c1[nH]c1ccccc21 [CAULERPIN],IC50,[3],0.24 µM
CC1(C)CCC[C@]2(C)[C@H]3C=C4C=C(O)C(=O)C=C4O[C@@]3(C)CC[C@@H]12 [PUUPEHENONE],inhibition at 12.5 µg/mL,[5],99%
CC[C@H]1/C=C/[C@H](O)[C@H](C=C(C)C)OC(=O)[C@@]2(C)C=CC(=O)Nc3c2c(O)c2c(c(O)c(C)cc2c3O)C(=O)CC1,zone of inhibition at 50 µg/disc,Mycolicibacterium vaccae,11 mm
CC(C)=C/C=C\[C@H](C)[C@H]1CC[C@]2(C)C[C@@H]3C(C)=CC(=O)[C@H]3/C(C=O)=C\C[C@@H]12,MIC,[1],17 µM
COC1=CC(=O)c2c(O)c3c(c(O)c2C1=O)C[C@]1(C)OCO[C@@H]1[C@H]3O,inhibition,[4],17.5 to 48.8%
CCCCCCSC1=C(SCCCCCC)C(=O)c2c(O)c3c(c(O)c2C1=O)C[C@](C)(O)[C@H](O)[C@H]3O,inhibition,[4],56.2%
CCCNC1=CC(=O)c2c(O)c3c(c(O)c2C1=O)C[C@](C)(O)[C@H](O)[C@H]3O,inhibition,[4],17.5 to 48.8%
O=C1CCCN2[C@@H](CC1)C[C@]13CN4CCCC/C=C\CC[C@](O)(C=C(c5nccc6c5[nH]c5ccccc56)[C@@H]1CC4)[C@H]23,MIC,[3],6.74 µM
CC(=O)O[C@H]1C[C@H]2[C@]3(C)CC[C@H]4C(C)(C)CCC[C@]4(C)[C@H]3C[C@@H](O)[C@]2(C)[C@@H]2C1=CC[C@H]2OC(C)=O,IC50,[3],2.67 µM
same,MIC,[3],12.8 µM
CC1(C)CCC[C@]2(C)[C@H]3C(C#N)=C4C=C(O)C(=O)C=C4O[C@@]3(C)CC[C@@H]12,inhibition at 12.5 µg/mL,[5],90%
O=C1CCCN2[C@@H](CC1)C[C@]13CN4CCCC/C=C\CC[C@](O)(C=C(c5nccc6c5[nH]c5ccc(O)cc56)[C@@H]1CC4)[C@H]23,MIC,[3],52.1 µM
CC(C)=CCOc1cc(O)c2c3c(c(O)cc(C)c13)OC2=O,zone of inhibition at 20 µg/disc,Mycolicibacterium phlei,22 mm
O=CC1=C[C@@]2(O)CC/C=C\CCCCN3CC[C@@H]1[C@]1(C[C@@H]4/C=C\CCCCN4[C@H]12)C3 [IRCINAL],MIC,[3],73.7 µM
CC(C)=C/C=C\[C@H](C)[C@H]1CC[C@]2(C)C[C@H]3[C@H](C(=O)C[C@@]3(C)O)/C(C=O)=C\C[C@@H]12,MIC,[1],4.1 µM
CC(C)=CCOc1cc(O)c2c3c(c(O)cc(C)c13)C(=O)OC2=O,zone of inhibition at 20 µg/disc,Mycolicibacterium phlei,16 mm
COC(=O)N[C@H]1[C@@H](C)O[C@@H](O[C@H]2C/C=C(\C)[C@@H]3C=C[C@@H]4[C@@H](O[C@@H]5C[C@@H](O[C@@H]6C[C@@H](O)[C@@H](O[C@H]7C[C@@H](C)[C@H](OC)[C@H](O)C7)[C@H](C)O6)[C@@H](O)[C@H](C)O5)[C@@H](C)C[C@H](C)[C@H]4[C@]3(C)C(=O)C3=C(O)[C@@]4(C[C@@H](C)C(COC(C)=O)=C[C@H]4/C=C/2C)OC3=O)C[C@]1(C)N,MIC,[3],26.7 µM
C=C(CC[C@@H](C)[C@H]1CC[C@H]2[C@@H]3[C@@H](C=O)[C@]4(O)C[C@@H](O)CC[C@]4(C)[C@H]3CC[C@]12C)C(C)C,MIC,[3],26.1 µM
COC1=CC(=O)c2c(O)c3c(c(O)c2C1=O)C[C@](C)(O)[C@H](O)[C@H]3O,inhibition,[4],37%
CC[C@H]1/C=C/[C@@H]([C@@H](O)C=C(C)C)OC(=O)/C(C)=C\[C@@H]2C(=O)NC3=CC(=O)c4c(cc(C)c(O)c4C(=O)CC1)[C@@]32O,zone of inhibition at 50 µg/disc,Mycolicibacterium vaccae,12 mm
C1=C\CCCC[C@@H]2CN3CCCC/C=C\CCCC[C@H]4C[C@H](CN(CCCCCC/1)C4)[C@H]2CC3 (relative stereo),MIC,[6],2.14 µM
COc1cc(O)c2c(c1O)C(=O)c1cc(C)ccc1C2=O,inhibition,[4],17.5 to 48.8%
COC1=CC(=O)c2c(O)c3c(c(O)c2C1=O)C[C@]1(C)OC(=O)O[C@@H]1[C@H]3O,inhibition,[4],17.5 to 48.8%
COc1cc(O)c2c(c1O)C(=O)C1=C(C[C@@H](O)[C@@](C)(O)C1)C2=O,inhibition,[4],17.5 to 48.8%
CNC1=CC(=O)c2c(O)c3c(c(O)c2C1=O)C[C@](C)(O)[C@H](O)C3,inhibition,[4],9.7%
COC(=O)N[C@H]1[C@@H](C)O[C@@H](O[C@H]2C/C=C(\C)[C@@H]3C=C[C@@H]4[C@@H](O[C@@H]5C[C@@H](O[C@@H]6C[C@@H](O)[C@@H](O[C@H]7C[C@@H](C)[C@H](OC)[C@H](O)C7)[C@H](C)O6)[C@@H](O)[C@H](C)O5)[C@@H](C)C[C@H](C)[C@H]4[C@]3(C)C(=O)C3=C(O)[C@@]4(C[C@@H](C)C(CO)=C[C@H]4/C=C/2C)OC3=O)C[C@]1(C)N,MIC,[3],27.7 µM
C=C(CC[C@@H](C)[C@H]1CC[C@H]2[C@@H]3CC=C4C[C@@H](O)CC[C@]4(C)[C@H]3CC[C@]12C)C(C)C,MIC,[3],302 µM
CC(C)=C[C@@H]1C[C@H](C)[C@H]2CC[C@H](C)c3c2c1c(C)c1ncoc31 [PSEUDOPTEROXAZOLE],inhibition at 12.5 µg/mL,[5],97%
CC(C)=CCC[C@H](C)[C@H]1CC[C@@H](C)c2c1ccc1ncoc21,inhibition at 12.5 µg/mL,[5],66%
